Source: US20050000154A1, “Apparatus and methods for enhanced plant and lawn growth using alkane injection” (Global BioSciences, Inc., priority 2001, published 2005)
Several values for one entry are separate records, joined by “and”; a condition that tells them apart may be missing. Equal entries are not always repeated. Where two headings read alike, the source gives them in different places.

Key:
[1] = test system: sunflower (Sun Gold-Golden Yellow Double) seed; conditions: for Seedling Height / germination: sterilized Caribbean Beach Sand
Protocol: Four vessels were filled with approximately 800 cm^3 of Paver Construction Sand (non-sterile) and two vessels contained sterilized Caribbean beach sand (see FIG. 23).
Each vessel contained one sunflower (Sun Gold-Golden Yellow Double) seed placed at a depth of 5.0 cm below soil surface. Each vessel was then watered with 100 ml spring water and positioned on its own drainage tray on a shelf approximately 60 cm below two 33 watt grow light tubes (no sunlight) equipped with a timer set for 16 hours light on, 6 hours light off.

Gladioli bulb [2] = conditions: liquid butane injected into the rhizosphere, halted Day 19
Protocol: Each vessel was filled with approximately 800 cm^3 of Pro-Mix® Potting Soil 214.
Each vessel contained one Gladioli bulb 216 placed at a depth of 10 cm below soil surface. FIG. 21 is a photograph showing the bulbs and vessels. Each vessel was then watered with 100 ml spring water and positioned on its own drainage tray on a shelf approximately 60 cm below two 33 watt grow light tubes (no sunlight) equipped with a timer set for 16 hours light on, 6 hours light off.

[3] = test system: sweet corn, variety Sugar Dots; conditions: for Seedling Height: two seedlings
Protocol: The tubing intersected the vessel through the diameter at a height of 1.5 cm above the base. […] Each vessel was filled with approximately 523 cm^3 of Iowa Crop Soil (soil depth =5.5 cm) that had been collected from an Iowa commercial cornfield. The soil in each vessel was tested for pH using a Chemetrics pH meter dipped in a mixture of 40 ml distilled water and 100 grams of soil.
Each vessel was seeded with two seeds of sweet corn, variety Sugar Dots, placed (illustrated in FIG. 9) at a depth of 2.54 cm below soil surface. Each vessel was then watered with 100 ml spring water and positioned on its own drainage tray on a shelf approximately 10 cm below two 33 watt grow light tubes (no sunlight) equipped with a timer set for 16 hours light on, 6 hours light off. White reflective covering was placed on the wall immediately behind the samples, with an aluminum foil hood extending over the light fixture to reflect light downward onto the vessels.

[4] = test system: sweet corn, variety Sugar Dots; conditions: for Seedling Height: two seedlings; remark: listed apart in the source
Protocol: The tubing intersected the vessel through the diameter at a height of 3.5 cm above the base. […] Each vessel was filled with approximately 902 cm^3 of Iowa Crop Soil (soil depth =9.5 cm) that had been collected from an Iowa commercial cornfield. The soil in each vessel was tested for pH using a Chemetrics pH meter dipped in a mixture of 40 ml distilled water and 100 grams of soil.
Each vessel was seeded with two seeds of sweet corn, variety Sugar Dots, (using the seed positions shown in FIG. 9) placed at a depth of 2.54 cm below soil surface. Each vessel was then watered with 100 ml spring water and positioned on its own drainage tray on a shelf approximately 10 cm below three 33 watt grow light tubes (no sunlight) equipped with a timer set for 16 hours light on, 6 hours light off. White reflective covering was placed on the wall immediately behind the samples, with an aluminum foil hood extending over the light fixture to reflect light downward onto the vessels.

Gladioli bulb [5] = test system: Gladioli bulb
Protocol: Each vessel was filled with approximately 800 cm^3 of Pro-Mix® Potting Soil (see FIGS. 20 and 21).
Each vessel contained one Gladioli bulb placed at a depth of 10 cm below soil surface. Each vessel was then watered with 100 ml spring water and positioned on its own drainage tray on a shelf approximately 60 cm below two 33 watt grow light tubes (no sunlight) equipped with a timer set for 16 hours light on, 6 hours light off.

[6] = Table 7 Day No. 6 (final day), Butane Bulb 1 and 2

## CCCC [Butane, n-butane]
[1]; Day 23, Paver Sand, unearthed
  root development compared with control plant: thicker and more robust
[1]; Day No. 23, Paver Sand (non-sterile), two plants
  Seedling Height: 20.0 cm
[1]; Day No. 23
  Seedling Height / germination: no seed growth or
[1]; Day No. 23, listed as butane
  Seedling Height / germination: No seed growth or germination
Gladioli bulb [2]; listed as Liquid butane
  effect of liquid butane injection on growing plants: into the rhizosphere killed the
Gladioli bulb [2]; listed as liquid butane
  effect of liquid butane injection on growing plants: killed
[3]; Day No. 6, n-butane injected into root zone
  Seedling Height: 0.5 cm and 0.8 cm
[3]; Day No. 7
  Seedling Height: 4.0 cm and 4.5 cm
[3]; Day No. 8
  Seedling Height: 7.0 cm and 6.0 cm
[3]; Day No. 9 (final day)
  Seedling Height: 11.0 cm and 6.8 cm
[3]; Day No. 9 (final day), listed as butane
  Seedling Height: 11 cm and 6.8 cm
[3]; seen through clear vessels
  root spread compared with control plants: greater and more complex degree horizontally
[4]; Day 16
  average height taller than the control corn plant: 55%
[4]; Day 16, average of two plants
  average growth in height: 23.3 cm
[4]; Day No. 5
  Seedling Height: 0.5 cm and 1.0 cm
[4]; Day No. 6
  Seedling Height: 3.0 cm, 3.0 cm
[4]; Day No. 7
  Seedling Height: 4.0 cm, 4.0 cm
[4]; Day No. 8
  Seedling Height: 6.0 cm and 5.7 cm
[4]; Day No. 9
  Seedling Height: 8.0 cm and 7.2 cm
[4]; Day No. 10
  Seedling Height: 11.0 cm and 9.1 cm
[4]; Day No. 11
  Seedling Height: 16.0 cm and 12 cm
[4]; Day No. 12
  Seedling Height: 18.0 cm and 15.5 cm
[4]; Day No. 13
  Seedling Height: 19.0 cm and 16.7 cm
[4]; Day No. 14
  Seedling Height: 20.1 cm and 17.3 cm
[4]; Day No. 15
  Seedling Height: 22.0 cm and 18.0 cm
[4]; Day No. 16
  Seedling Height: 27.0 cm and 19.6 cm
[4]; in vivo
  time of sprouting compared with control plant: three days earlier
[4]; last day of growth (Day 16), taller plant, shorter plant
  stem thickness: 0.5 cm and 0.3 cm
[4]; over the sixteen-day period, average of two plants
  average growth rate: 1.45 cm per day
[4]; seen through clear vessels
  root branch length: up to 3 cm
[4]; sixteen-day period
  faster growth rate than the control plant: 54%
[4]; two seeds planted
  seed sprouting: sprouted into seedlings
Gladioli bulb [5]; Table 7 Day No. 1, Butane Bulb 2
  Seedling Height, secondary shoot: Secondary shoot 3.0 cm
Gladioli bulb [5]; [6]
  Seedling Height, main shoot: 27.0 cm and 29.0 cm
  Seedling Height, secondary shoot: 14.0 cm and 23.0 cm
Gladioli bulb [5]; butane enrichment for 17 days, bulbs unearthed
  root development compared with control plant: greater
Gladioli bulb [5]; butane gas injection, shoots directly from the bulb sphere
  bulb shoot bifurcation: conditioned to grow two plants
